# Source: patent USRE50082E1, “(5,6-dihydro)pyrimido[4,5-e]indolizines” (NETHERLANDS TRANSLATIONAL RESEARCH CENTER B.V., priority 2014, dated 2024)
# Test system: MOLT-4 cancer cell line
# Experiment: Cell proliferation assay, MOLT-4 cancer cell line (ATPlite);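 note: luminescence read-out, percent growth versus compound-free DMSO wells as maximum growth, start-of-incubation signal separating growth from cell death, IC50 from logistic curve fit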
# Format: cell-based
# Details: Homo sapiens, MOLT-4; 72 hours incubation, ATPlite 1Step; read-out: IC50 MOLT-4 cell proliferation
row,SMILES,IC50 [nM]
1,"COc1cc(N2CCN(C)CC2)ccc1Nc1ncc2c(n1)-n1ccc(C(=O)Nc3c(C(C)C)cccc3C(C)C)c1CC2 [Example 11, N-(2,6-diisopropylphenyl)-2-[2-methoxy-4-(4-methylpiperazin-1-yl)anilino]-5,6-dihydropyrimido[4,5-e]indolizine-7-carboxamide]",50 to 150
2,"[2H]C([2H])([2H])Oc1cc(N2CCN(C)CC2)ccc1Nc1ncc2c(n1)-n1ccc(C(=O)Nc3c(CC)nn(CCOC)c3CC)c1CC2 [Example 100, N-[3,5-diethyl-1-(2-methoxyethyl)pyrazol-4-yl]-2-[4-(4-methylpiperazin-1-yl)-2-(trideuteriomethoxy)anilino]-5,6-dihydropyrimido[4,5-e]indolizine-7-carboxamide]",< 50
3,"CCc1n[nH]c(CC)c1NC(=O)c1ccn2c1CCc1cnc(Nc3ccc(N4CCN(C)CC4)cc3C)nc1-2 [Example 9, N-(3,5-diethyl-1H-pyrazol-4-yl)-2-[2-methyl-4-(4-methylpiperazin-1-yl)anilino]-5,6-dihydropyrimido[4,5-e]indolizine-7-carboxamide]",< 50
4,"COc1cc(C(=O)NC(C)C)ccc1Nc1ncc2c(n1)-n1ccc(C(=O)Nc3c(C)cccc3C)c1CC2 [Example 120, N-(2,6-dimethylphenyl)-2-[4-(isopropylcarbamoyl)-2-methoxy-anilino]-5,6-dihydropyrimido[4,5-e]indolizine-7-carboxamide]",< 50
5,"COc1cc(OC2CCN(C)CC2)ccc1Nc1ncc2c(n1)-n1ccc(C(=O)Nc3c(C)cccc3C)c1CC2 [Example 39, N-(2,6-dimethylphenyl)-2-[2-methoxy-4-[(1-methyl-4-piperidyl)oxy]anilino]-5,6-dihydropyrimido[4,5-e]indolizine-7-carboxamide]",< 50
6,"COc1cc(N2CCNCC2)ccc1Nc1ncc2c(n1)-n1ccc(C(=O)Nc3c(C)cccc3C)c1CC2 [Example 17, N-(2,6-dimethylphenyl)-2-(2-methoxy-4-piperazin-1-yl-anilino)-5,6-dihydropyrimido[4,5-e]indolizine-7-carboxamide]",< 50
7,"CCc1nn(CCOC)c(CC)c1NC(=O)c1ccn2c1CCc1cnc(Nc3ccc(N4CCN(C)CC4)cc3OC)nc1-2 [Example 109, N-[3,5-diethyl-1-(2-methoxyethyl)pyrazol-4-yl]-2-[2-methoxy-4-(4-methylpiperazin-1-yl)anilino]-5,6-dihydropyrimido[4,5-e]indolizine-7-carboxamide]",< 50
8,"Cc1cc(N2CCNCC2)ccc1Nc1ncc2c(n1)-n1ccc(C(=O)Nc3c(C)cccc3Br)c1CC2 [Example 81, N-(2-bromo-6-methyl-phenyl)-2-(2-methyl-4-piperazin-1-yl-anilino)-5,6-dihydropyrimido[4,5-e]indolizine-7-carboxamide]",< 50
9,"Cc1cc(N2CCOCC2)ncc1Nc1ncc2c(n1)-n1ccc(C(=O)Nc3c(C)cccc3C)c1CC2 [Example 34, N-(2,6-dimethylphenyl)-2-[(4-methyl-6-morpholino-3-pyridyl)amino]-5,6-dihydropyrimido[4,5-e]indolizine-7-carboxamide]",50 to 150
10,"Cc1cc(N2CCNCC2)ccc1Nc1ncc2c(n1)-n1ccc(C(=O)Nc3c(C)cccc3Cl)c1CC2 [Example 78, N-(2-chloro-6-methyl-phenyl)-2-(2-methyl-4-piperazin-1-yl-anilino)-5,6-dihydropyrimido[4,5-e]indolizine-7-carboxamide]",< 50
11,"COCCNC(=O)c1ccc(Nc2ncc3c(n2)-n2ccc(C(=O)Nc4c(C)cccc4C)c2CC3)c(OC)c1 [Example 127, N-(2,6-dimethylphenyl)-2-[2-methoxy-4-(2-methoxyethylcarbamoyl)anilino]-5,6-dihydropyrimido[4,5-e]indolizine-7-carboxamide]",< 50
12,"COCCn1nc(C)c(NC(=O)c2ccn3c2CCc2cnc(Nc4ccc(-c5c(C)nn(C)c5C)cc4OC)nc2-3)c1C [Example 94, N-[1-(2-methoxyethyl)-3,5-dimethyl-pyrazol-4-yl]-2-[2-methoxy-4-(1,3,5-trimethylpyrazol-4-yl)anilino]-5,6-dihydropyrimido[4,5-e]indolizine-7-carboxamide]",< 50
13,"COc1cc(OC2CCN(C)CC2)ccc1Nc1ncc2c(n1)-n1ccc(C(=O)Nc3c(C)cccc3Cl)c1CC2 [Example 41, N-(2-chloro-6-methyl-phenyl)-2-[2-methoxy-4-[(1-methyl-4-piperidyl)oxy]anilino]-5,6-dihydropyrimido[4,5-e]indolizine-7-carboxamide]",< 50
14,"COc1cc(C(=O)N[C@@H]2CCNC[C@@H]2OC)ccc1Nc1ncc2c(n1)-n1ccc(C(=O)Nc3c(C)cccc3C)c1CC2 [Example 117, N-(2,6-dimethylphenyl)-2-[2-methoxy-4-[[(3S,4R)-3-methoxy-4-piperidyl]carbamoyl]anilino]-5,6-dihydropyrimido[4,5-e]indolizine-7-carboxamide]",< 50
15,"Cc1cc(N2CCN(C)CC2)ccc1Nc1ncc2c(n1)-n1ccc(C(=O)Nc3c(C)cccc3Br)c1CC2 [Example 65, N-(2-bromo-6-methyl-phenyl)-2-[2-methyl-4-(4-methylpiperazin-1-yl)anilino]-5,6-dihydropyrimido[4,5-e]indolizine-7-carboxamide]",< 50
16,"Cc1cc(N2CCNCC2)ccc1Nc1ncc2c(n1)-n1ccc(C(=O)Nc3c(Cl)cccc3Cl)c1CC2 [Example 79, N-(2,6-dichlorophenyl)-2-(2-methyl-4-piperazin-1-yl-anilino)-5,6-dihydropyrimido[4,5-e]indolizine-7-carboxamide]",< 50
17,"CCc1cccc(CC)c1NC(=O)c1ccn2c1CCc1cnc(Nc3ccc(OCCN(C)C)cc3OC)nc1-2 [Example 52, N-(2,6-diethylphenyl)-2-[4-(2-dimethylaminoethyloxy)-2-methoxy-anilino]-5,6-dihydropyrimido[4,5-e]indolizine-7-carboxamide]",50 to 150
18,"Cc1cccc(C)c1NC(=O)c1ccn2c1CCc1cnc(Nc3ccc(C(=O)NC4CCN(C)CC4)cc3F)nc1-2 [Example 7, N-(2,6-dimethylphenyl)-2-[2-fluoro-4-[(1-methyl-4-piperidyl)carbamoyl]anilino]-5,6-dihydropyrimido[4,5-e]indolizine-7-carboxamide]",50 to 150
19,"Cc1cccc(C)c1NC(=O)c1ccn2c1CCc1cnc(Nc3ccc(N4CCOCC4)nc3C)nc1-2 [Example 68, N-(2,6-dimethylphenyl)-2-[(2-methyl-6-morpholino-3-pyridyl)amino]-5,6-dihydropyrimido[4,5-e]indolizine-7-carboxamide]",< 50
20,"COc1cc(N2CCN(C)CC2)ccc1Nc1ncc2c(n1)-n1ccc(C(=O)Nc3c(C)cc(C)cc3C)c1CC2 [Example 22, 2-[2-Methoxy-4-(4-methylpiperazin-1-yl)anilino]-N-(2,4,6-trimethylphenyl)-5,6-dihydropyrimido[4,5-e]indolizine-7-carboxamide]",< 50
21,"CCOc1cc(N2CCN(C)CC2)ccc1Nc1ncc2c(n1)-n1ccc(C(=O)Nc3c(CC)n[nH]c3CC)c1CC2 [Example 31, N-(3,5-diethyl-1H-pyrazol-4-yl)-2-[2-ethoxy-4-(4-methylpiperazin-1-yl)anilino]-5,6-dihydropyrimido[4,5-e]indolizine-7-carboxamide]",50 to 150
22,"COCCn1nc(C)c(NC(=O)c2ccn3c2ccc2cnc(Nc4ccc(N5CCNCC5)cc4OC)nc23)c1C [Example 96, N-[1-(2-methoxyethyl)-3,5-dimethyl-pyrazol-4-yl]-2-(2-methoxy-4-piperazin-1-yl-anilino)pyrimido[4,5-e]indolizine-7-carboxamide]",< 50
23,"Cc1cc(N2CCN(C)CC2)ccc1Nc1ncc2c(n1)-n1ccc(C(=O)Nc3c(Cl)cccc3Cl)c1CC2 [Example 66, N-(2,6-dichlorophenyl)-2-[2-methyl-4-(4-methylpiperazin-1-yl)anilino]-5,6-dihydropyrimido[4,5-e]indolizine-7-carboxamide]",< 50
24,"CCc1n[nH]c(CC)c1NC(=O)c1ccn2c1CCc1cnc(Nc3ccc(N4CCNCC4)cc3OC)nc1-2 [Example 18, N-(3,5-diethyl-1H-pyrazol-4-yl)-2-(2-methoxy-4-piperazin-1-ylanilino)-5,6-dihydropyrimido[4,5-e]indolizine-7-carboxamide]",< 50
25,"COCCn1nc(C)c(NC(=O)c2ccn3c2CCc2cnc(Nc4ccc(N5CCN(C(C)=O)CC5)cc4OC)nc2-3)c1C [Example 131, 2-[4-(4-Acetylpiperazin-1-yl)-2-methoxy-anilino]-N-[1-(2-methoxyethyl)-3,5-dimethyl-pyrazol-4-yl]-5,6-dihydropyrimido[4,5-e]indolizine-7-carboxamide]",50 to 150
26,"CCc1cccc(C)c1NC(=O)c1ccn2c1CCc1cnc(Nc3ccc(OC4CCN(C)CC4)cc3OC)nc1-2 [Example 40, N-(2-ethyl-6-methyl-phenyl)-2-[2-methoxy-4-[(1-methyl-4-piperidyl)oxy]anilino]-5,6-dihydropyrimido[4,5-e]indolizine-7-carboxamide]",< 50
27,"CCc1cccc(CC)c1NC(=O)c1ccn2c1CCc1cnc(Nc3ccc(OC4CCN(C)C4)cc3OC)nc1-2 (stereo not drawn) [Example 59, N-(2,6-diethylphenyl)-2-[2-methoxy-4-(1-methylpyrrolidin-3-yl)oxy-anilino]-5,6-dihydropyrimido[4,5-e]indolizine-7-carboxamide]",< 50
28,"COc1cc(OC2CCN(C)C2)ccc1Nc1ncc2c(n1)-n1ccc(C(=O)Nc3c(C)cccc3C)c1CC2 (stereo not drawn) [Example 84, N-(2,6-dimethylphenyl)-2-[2-methoxy-4-(1-methylpyrrolidin-3-yl)oxy-anilino]-5,6-dihydropyrimido[4,5-e]indolizine-7-carboxamide]",< 50
29,"CCc1n[nH]c(CC)c1NC(=O)c1ccn2c1CCc1cnc(Nc3ccc(OC4CNC4)cc3OC)nc1-2 [Example 92, 2-[4-(Azetidin-3-yloxy)-2-methoxy-anilino]-N-(3,5-diethyl-pyrazol-4-yl)-5,6-dihydropyrimido[4,5-e]indolizine-7-carboxamide]",50 to 150
30,"CCc1cccc(CC)c1NC(=O)c1ccn2c1CCc1cnc(Nc3ccc(N4CCN(C)CC4)cc3C)nc1-2 [Example 67, N-(2,6-diethylphenyl)-2-[2-methyl-4-(4-methylpiperazin-1-yl)anilino]-5,6-dihydropyrimido[4,5-e]indolizine-7-carboxamide]",< 50
